Measured values published in patent publication US11879145B2, “Reagents and methods for replication, transcription, and translation in semi-synthetic organisms” (The Scripps Research Institute, priority 2019, dated 2024).

Test system: sfGFP^151(AXC)
Assay: Optimization of unnatural ribonucleotide triphosphate concentrations (sfGFP fluorescence and protein shift)
Format: cell-based, E. coli
Description: Examples 1A, 1B, and 2 identified dCNMO-dTPT3 as a competent UBP for the storage of information, and TAT1TP and NaMTP or 5FMTP as competent ribonucleoside triphosphates for its retrieval. Upon transformation with the same plasmids used above, 10 μM dTPT3TP and 25 μM dCNMOTP were provided in the growth media, which was then also supplemented with TAT1TP at concentrations ranging from 100 μM to 12.5 μM, and either NaMTP or 5FMTP at concentrations ranging from 200 μM to 12.5 μM, all in series of 2-fold dilutions, and after the addition of 1 mM AzK, the cells were induced to express sfGFP. […] In both cases, fluorescence was higher at lower concentrations of NaMTP or 5FMTP (due to increased production of contaminating natural sfGFP, see below). Additionally, cells generally produced higher fluorescence at higher concentrations of TAT1TP. […] Protein production was again quantified via the gel shift assay (FIG. 6C and FIG. 6D). Generally, as the concentration of NaMTP decreased below 200 μM, incrementally lower fidelity of AzK incorporation into sfGFP was observed, while with use of 5FMTP this reduction in fidelity was only observed below a concentration of 50 μM. Clearly lower concentrations of 5FMTP can be used without compromising fidelity. Cells provided with a high concentration of 5FMTP (≥50 µM) produced high protein shifts at all concentrations of TAT1TP explored (100 μM, 50 μM, 25 μM, or 12.5 μM).
Optimization of in vivo Translation Conditions. An overnight culture of the SSO strain ML2 carrying the pGEX-MbPylRS TetR plasmid was grown in 2×YT supplemented with 50 mM potassium phosphate, […] chloramphenicol and 100 μg/mL carbenicillin (herein referred to in this section as “media”), then diluted back to an OD600 of 0.03 in the same media and grown to an OD600 of 0.4-0.6. The culture was then chilled with shaking over ice-water for 15 min then pelleted by centrifugation at 3,200×g for 10 min. Cells were then resuspended and washed with ice-cold ddH2O twice then resuspended in ice-cold ddH2O to an OD600 of 55-65. The electrocompetent cells (50 μL) and ˜1 ng of Golden Gate assembled plasmid with the UBP within the sfGFP and tRNAPyl genes (see Golden Gate Assembly of Plasmids) were transferred to a pre-chilled electroporation cuvette (0.2-cm-gap), then electroporated (Gene Pulser II; Bio-Rad) according to manufacturer's recommendations (voltage […], capacitor 2.5 μF, resistor 200Ω), and then immediately diluted with 950 μL of media. […] The culture was monitored for cell growth (Envision 2103 Multilabel Plate Reader with a 590/20 nm filter) and then collected at an OD600˜1.0. […]

COc1cc(C)c(F)cc1[C@@H]1O[C@H](COP(=O)(O)OP(=O)(O)OP(=O)(O)O)[C@@H](O)[C@H]1O [Compound 5FMTP]
Concentration for combined optimization of protein purity and yield (5FMTP and TAT1TP pair): 50 µM
XTP concentration below which lower fidelity of AzK incorporation into sfGFP was observed (with TAT1TP 12.5-100 μM): 50 µM
